Source: patent publication US20240108607A1, “METHOD FOR MANUFACTURING NOVEL NITROGEN-CONTAINING COMPOUND OR SALT THEREOF AND MANUFACTURING INTERMEDIATE OF NOVEL NITROGEN-CONTAINING COMPOUND OR SALT THEREOF” (FUJIFILM Corporation, priority 2015, published 2024)
Blank lines part the entries; values can stand above or below the molecule they belong to.

Tests used:
integrin αvβ3 = integrin αvβ3 (Homo sapiens, UniProt P05106+P06756); assay: Integrin αvβ3 binding affinity test (biotinylated vitronectin competition on immobilized integrin); conditions: inhibition of biotinylated vitronectin binding
Description: Test Example 1 Integrin […] Binding Affinity Test
(§1) 0.2 μg/mL of δvβ3 was immobilized in a 96-well plates (Corning Incorporated) and then blocked using a 1% Block Ace (DS Pharma Biomedical Co., Ltd.) solution, and then the plate was washed with T-PBS (PBS containing 0.05% Tween 20). A 2× concentrated evaluation compound solution (10× concentration of 3.16× dilution from 0.3 μmol/L, buffer (20 mM Tris-HCl pH 7.5, 150 mM NaCl, 1 mM CaCl2), 1 mM MgCl2, 1 mM MnCl2)) and a 4 μg/mL biotinylated vitronectin solution (labeling vitronectin (Upstate Biotechnology Inc.) by using EZ-Link Sulfo-NHS-Biotinylation Kit (Pierce Protein Biology) and then adjusting concentration) were each added to the plate in an amount of 50 μL, and the plate was shaken for 2 hours at room temperature. The plate was washed with T-PBS, a 0.2 μg/mL avidin·peroxidase (Pierce Protein Biology) was added thereto, and the plate was shaken for 1 hour at room temperature. The plate was washed with T-PBS, an o-phenylenediamine (Sigma-Aldrich Co., LLC.) solution was added thereto such that color was produced (stopped using 4 mol/L sulfuric acid), and the absorbance (490 nm, Reference: 595 nm) was measured. The IC50 value was calculated using XLfit 3.0 (ID Business Solutions Ltd.). For each plate, as a QC sample, RGDfV (Bachem AG) was measured in duplicate. […]

integrin αvβ5 = integrin αvβ5 (Homo sapiens, UniProt P06756+P18084); assay: Integrin αvβ5 binding affinity test (biotinylated vitronectin competition on immobilized integrin); conditions: inhibition of biotinylated vitronectin binding
Description: Test Example 2 Integrin […] Binding Affinity Test
as §1, with “[…]” for “δvβ3”, “PBST (10 mM Na2HPO4 pH 7.5, 150 mM NaCl, 0.01%” for “T-PBS (PBS containing 0.05%”, “[…],” for “μmol/L,”, “PBST,” for “T-PBS,”, “[…] avidin-peroxidase” for “μg/mL avidin·peroxidase”

U87MG cells [1] = assay: Radioactivity concentration of labeled compounds in tumor, U87MG subcutaneous transplantation; format: in vivo, mice (Balb/c AJcl-nu/nu); conditions: caudal vein, 111In 740 kBq, 64Cu and 90Y 500 kBq
Description: Test Example 3 Evaluation based on radioactivity concentration of ^111In-labeled compound, ^64Cu-labeled compound, and ^90Y-labeled compound in tumor
After 2 to 3 weeks, at a point in time when the tumor volume became 200 to 500 mm^3, 3 mice were sorted into one group at each point in time. The ^111In-labeled compound (740 k Bq) was administered into the caudal vein, the animals were sacrificed after a certain period of time, and the tumor was extracted. The weight of the tumor was measured, the radioactivity was measured using a gamma counter, and the radioactivity concentration in tumor (% ID/g) was calculated. For the ^64Cu-labeled compound (500 k Bq) and the ^90Y-labeled compound (500 k Bq), the radioactivity concentration in tumor (% ID/g) was calculated by the same method.

U87MG cells [2] = assay: Imaging of integrin expression tumor by PET; format: in vivo, mice (Balb/c AJcl-nu/nu); conditions: 48 hours after administration, 4.8 MBq/mouse caudal vein
Description: Test Example 4 Imaging of Integrin Expression Tumor by Positron Emission Tomography (PET) Using [^64Cu]-(Compound A) and [^64Cu]-(Compound B)
After 2 weeks, [^64Cu]-(compound A) was administered at 4.8 MBq/mouse into the caudal vein of the mice with a tumor having a volume of […] to 650 mm^3. After 1, 4, 24, and 48 hours, the mice were imaged by microPET/CT (Inveon, Siemens Healthcare GmbH) under isoflurane anesthesia. […], whole blood was collected from the postcava under deep isoflurane anesthesia, the animals were euthanised, and then the tumor was extracted. The weight of the tumor was measured, the radioactivity was measured using a gamma counter, and the radioactivity concentration in tumor (% ID/g) was calculated. For [^64Cu]-(compound B), imaging was performed by the same method.
FIGS. 1 and 2 show PET images relating to each compound captured at each point in time. […] As a result, a hematoma matching with the image was found in the central portion. At the time of dissection (48 hours after administration), the radioactivity concentration in tumor was 5.6% ID/g.

[3] = Absorbed dose in a human being simulated with OLINDA/EXM 1.0 from monkey organ distribution
Description: Blood was collected from a crab-eating macaque over time, and by using [^111In]-(compound A), from the radioactivity concentration in the blood, kinetic parameters of the compound in blood were calculated by OLINDA/EXM 1.0. Furthermore, by using [^111In]-(compound A), from the organ distribution obtained by imaging, the absorbed dose of each organ obtained in a case where the compound is administered to a human being was calculated using OLINDA/EXM 1.0. [^111In]-(compound A) (98 MBq/9.3 μg) was administered to a crab-eating macaque (Hamri Co., Ltd., males, 3-year-old, 3.4 kg) under anesthesia. After the administration, blood was collected over time, and imaging was performed using a gamma camera. The blood was collected 10, 30, and 60 minutes after the administration and 2, 4, 5, 6, 24, 48, 72, and 144 hours after the administration. Regarding the imaging, after 1, 2, 4, 6, 24, 48, 72, and 144 hours, planar imaging was performed using a gamma camera (Symbia, Siemens Healthcare GmbH). Regarding the anesthesia, the animal was anesthetized with ketamine at 20 mg/kg before the administration of [^111In]-(compound A) and kept anesthetized until the end of imaging, which was continued for 6 hours after the administration, by inhalation anesthesia (isofluran 2 to 3%, 5 to 8 L/min). After 24 hours, ketamine (20 mg/kg) and xylazine (2 mg/kg) were administered to perform blood collection and imaging.
Furthermore, by using exposure dose analysis software OLINDA/EXM 1.0, the absorbed dose in a human being was simulated using each of the labeled compounds, and the results are shown below.

[4] = Radiochemical purity after standing at room temperature (reversed-phase TLC); format: physicochemical; conditions: 22 hours
Description: A indium [^111In] chloride solution (80 MBq, 100 μL) was added to a mixture of the compound A (8.5 μg) and a 0.2 mol/L sodium acetate buffer solution (pH 4.0) (1.5 mL). The solution was heated to 100° C. for 15 minutes and then left to stand for 5 minutes at room temperature, thereby obtaining [^111In]-(compound A). […] The radiochemical purity measured immediately after the compound was prepared and measured after 24 hours at room temperature was equal to or higher than 95%.
A yttrium [^90Y] chloride solution (700 MBq, 240 μL) was added to a mixture of the compound (79 μg), gentisic acid (1.8 mg), a 0.6 mol/L sodium acetate buffer solution (pH 4.0, 120 μL), and 0.4 mol/L aqueous sodium hydroxide solution (24 μL). The solution was heated to 100° C. for 20 minutes and then left to stand for 5 minutes at room temperature, thereby obtaining [90^Y]-(compound A). […] The radiochemical purity measured immediately after the compound was prepared and measured after 24 hours at room temperature was equal to or higher than 95%.
A copper [^64Cu] chloride solution (pH 5, 35 MBq, 55 μL) was added to a mixture of the compound A (5.8 μg) and 0.2 mol/L sodium acetate buffer solution (pH 4.0, 219 μL). The solution was heated to 100° C. for 15 minutes and left to stand for 5 minute at room temperature, thereby obtaining [^64Cu]-(compound A). […] The radiochemical purity measured immediately after the compound was prepared and measured after 22 hours at room temperature was equal to or higher than 90%.
A 0.2 mol/L sodium acetate buffer solution of Copper [^64Cu] chloride (pH 4.0) (40 MBq, 155 μL) was added to a mixture of the compound B (4.2 μg), gentisic acid (1 mg), and a 0.2 mol/L sodium acetate buffer solution (pH 4.0) (5.0 μL). The solution was heated to 100° C. for 15 minutes and left to stand for 5 minutes at room temperature, thereby obtaining [^64Cu]-(compound B). […] The radiochemical purity measured immediately after the compound was prepared and measured after 24 hours at room temperature was equal to or higher than 90%.
(§2) A gallium [^67Ga] chloride solution (200 MBq, 63 μL) was added to a mixed solution of the compound A (21 μg), gentisic acid (1.0 mg), a 0.2 mol/L sodium acetate buffer solution (pH 4.0, 730.7 μL), and 4.5 mol/L aqueous sodium hydroxide solution (6.3 μL). The solution was heated to 100° C. for 15 minutes and then left to stand for 5 minutes at room temperature, thereby obtaining [^67Ga]-(compound A).
A lutetium [^177Lu] chloride solution (666 MBq, 333 μL) dissolved in a 0.2 mol/L sodium acetate buffer solution (pH 4.0) was added to a mixed solution of the compound A (70.0 μg), gentisic acid (1.8 mg), and a 0.2 mol/L sodium acetate buffer solution (pH 4.0, 83.3 μL). The solution was heated to 100° C. for 15 minutes and then left to stand for 5 minutes at room temperature, thereby obtaining [^177Lu]-(compound A).
as §2, with “(40” for “(200”, “11.7” for “63”, “B (4.1” for “A (21”, “4.5, 147.13” for “4.0, 730.7”, “(1.17” for “(6.3”, “B).” for “A).”

IC50 (integrin αvβ3): < 1 nM
IC50 (integrin αvβ5): < 1 nM
SMILES: Cc1cc(OCCCC(=O)NCCNC(=O)[C@H](CS(=O)(=O)O)NC(=O)CN2CCN(CC(=O)O)CCN(CC(=O)O)CCN(CC(=O)O)CC2)cc(C)c1S(=O)(=O)N[C@@H](CNC(=O)CCCCc1ccc2c(n1)NCCC2)C(=O)O [Compound A, 2,2′,2″-(10-(2-(((R)-1-((2-(4-(4-(N—((S)-1-carboxy-2-(5-(5,6,7,8-tetrahydro-1,8-naphthyridin-2-yl)pentanamide)ethyl)sulfamoyl)-3,5-dimethylphenoxy)butanamide)ethyl)amino)-1-oxo-3-sulfopropan-2-yl)amino)-2-oxoethyl)-1,4,7,10-tetraazacyclododecane-1,4,7-triyl)triacetic acid]

SMILES: Cc1cc(OCCCC(=O)NCCNC(=O)[C@H](CS(=O)(=O)O)NC(=O)CC[C@H](C(=O)O)N2CCN(CC(=O)O)CCN(CC(=O)O)CC2)cc(C)c1S(=O)(=O)N[C@@H](CNC(=O)CCCCc1ccc2c(n1)NCCC2)C(=O)O [Compound B, 2,2′-(7-((R)-1-carboxy-4-(((R)-1-((2-(4-(4-(N—((S)-1-carboxy-2-(5-(5,6,7,8-tetrahydro-1,8-naphthyridin-2-yl)pentanamide)ethyl)sulfamoyl)-3,5-dimethylphenoxy)butanamide)ethyl)amino)-1-oxo-3-sulfopropan-2-yl)amino)-4-oxobutyl)-1,4,7-triazonane-1,4-diyl)diacetic acid]
IC50 (integrin αvβ3): < 1 nM
IC50 (integrin αvβ5): < 1 nM

SMILES: Cc1cc(OCCCC(=O)NCCNC(=O)C(CS(=O)(=O)O)NC(=O)CN2CCN(CC(=O)[O-])CCN(CC(=O)O)CCN(CC(=O)[O-])CC2)cc(C)c1S(=O)(=O)NC(CNC(=O)CCCCc1ccc2c(n1)NCCC2)C(=O)O.[64Cu+2] (stereo not drawn) [[^64Cu]-(compound A)]
Radioactivity concentration in tumor After 4 hours (U87MG cells [1]; 4 hours): 9.25 % ID/g
Radioactivity concentration in tumor After 24 hours (U87MG cells [1]; 24 hours): 8.48 % ID/g
radioactivity concentration in tumor at the time of dissection (U87MG cells [2]): 5.6 % ID/g
Absorbed dose Brain [3]: 0.11 mGy/MBq
Absorbed dose Kidney [3]: 0.69 mGy/MBq
Absorbed dose Liver [3]: 0.09 mGy/MBq
Absorbed dose Lung [3]: 0.08 mGy/MBq
Absorbed dose Red marrow [3]: 0.01 mGy/MBq
Absorbed dose Small intestine [3]: 0.06 mGy/MBq
Absorbed dose Whole body [3]: 0.02 mGy/MBq
radiochemical purity immediately after preparation and after 22 hours at room temperature [4]: ≥ 90%
